How the values were obtained:
[1] = target: Genome polyprotein (dengue virus type 2) (UniProt P29990); experiment: Inhibition of dengue2 virus NS2B/NS3 protease activity for Ac-Thr-Arg-Arg-MCA cleavage at 400 ppm
[2] = target: Genome polyprotein (dengue virus type 2) (UniProt P29990); experiment: Inhibition of dengue2 virus NS2B/NS3 protease activity for Ac-Thr-Arg-Arg-MCA cleavage at 120 ppm
[3] = target: Genome polyprotein (dengue virus type 2) (UniProt P29990); experiment: Inhibition of dengue2 virus NS2B/NS3 protease activity for Ac-Thr-Arg-Arg-MCA cleavage at 240 ppm
[4] = target: Genome polyprotein (dengue virus type 2) (UniProt P29990); experiment: Inhibition of dengue2 virus NS2B/NS3 protease activity for Boc-Gly-Arg-Arg-MCA cleavage at 80 ppm
[5] = target: Genome polyprotein (dengue virus type 2) (UniProt P29990); experiment: Inhibition of dengue2 virus NS2B/NS3 protease activity for Boc-Gly-Arg-Arg-MCA cleavage at 40 ppm
[6] = target: Genome polyprotein (dengue virus type 2) (UniProt P29990); experiment: Inhibition of dengue2 virus NS2B/NS3 protease activity for Boc-Gly-Arg-Arg-MCA cleavage at 120 ppm
[7] = target: Genome polyprotein (dengue virus type 2) (UniProt P29990); experiment: Inhibition of dengue2 virus NS2B/NS3 protease activity for Boc-Gly-Arg-Arg-MCA cleavage at 400 ppm
[8] = target: Genome polyprotein (dengue virus type 2) (UniProt P29990); experiment: Inhibition of dengue2 virus NS2B/NS3 protease activity for Boc-Gly-Arg-Arg-MCA cleavage at 160 ppm
[9] = target: Genome polyprotein (dengue virus type 2) (UniProt P29990); experiment: Inhibition of dengue2 virus NS2B/NS3 protease activity for Boc-Gly-Arg-Arg-MCA cleavage at 240 ppm
Genome polyprotein = Genome polyprotein (dengue virus type 2, UniProt P29990); experiment: Inhibition of dengue2 virus NS3 protease

`CC(C)=CC[C@@H]1C(C)=CC[C@@H](c2ccccc2)[C@@H]1C(=O)c1c(O)cc(O)cc1O` [4-HYDROXYPANDURATIN A] was tested, and the inhibition [1] was 99.2%, the inhibition [2] was 90.4% and the inhibition [3] was 96.1%. For the same compound, the inhibition [4] was 78.1%, the inhibition [5] was 52% and the inhibition [6] was 87.6%. The inhibition [7] was 99.8%, the inhibition [8] was 96% and the inhibition [9] was 97.3%. The Ki (Genome polyprotein) was 21 µM.
In the case of `COc1cc(O)cc(O)c1C(=O)/C=C/c1ccccc1` [CARDAMOMIN], the inhibition [6] is reported as 39.4%, the inhibition [7] is reported as 71.3% and the inhibition [9] is reported as 50.1%. The Ki (Genome polyprotein) was 377 µM.
Work on `COc1cc(O)c(C(=O)[C@@H]2[C@H](CC=C(C)C)C(C)=CC[C@H]2c2ccccc2)c(O)c1` [PANDURATIN A] yielded an inhibition [1] of 90.4%, an inhibition [2] of 47.5% and an inhibition [3] of 59.6%. The inhibition [4] was 66.7%, the inhibition [5] was 27.1% and the inhibition [6] was 87.7%. It also gave an inhibition [7] of 99.8%, an inhibition [8] of 93.7% and an inhibition [9] of 92.2%. For the same compound, the Ki (Genome polyprotein) was 25 µM.
With `COc1cc(O)c2c(c1)O[C@H](c1ccccc1)CC2=O` [PINOSTROBIN] the inhibition [1] was 88.7%, the inhibition [2] was 76.7% and the inhibition [3] was 80.7%. It also gave a Ki (Genome polyprotein) of 345 µM.
Compound `O=C1C[C@@H](c2ccccc2)Oc2cc(O)cc(O)c21` has an inhibition [6] of 30.1%, an inhibition [7] of 56.1% and an inhibition [9] of 47.3%.

Reference: ChEMBL document CHEMBL1148500, “Inhibitory activity of cyclohexenyl chalcone derivatives and flavonoids of fingerroot, Boesenbergia rotunda (L.), towards dengue-2 virus NS3 protease” (Bioorg Med Chem Lett, 2006)
